Measured values published in patent US20150315241A1, “Antibiotic Peptides” (priority 2007, published 2015).
Converted amounts (≈) assume the structure as drawn. Read-outs that look alike come from different tables or passages of the source. Where a SMILES comes first, the peptide text is derived from it. Where no end group is shown, it is not given here. [ ]: non-standard residue; d: D form. The star is where a group is joined. Guan = guanidino group added at N-terminus (guanidation), N=C(N)*; Orn(α-tetramethylguanidino) = CN(C)C(=N[C@@H](CCCN)C(=O)*)N(C)C; hArg = N=C(N)NCCCC[C@H](N)C(=O)O; β3hR = N=C(N)NCCC[C@H](N)CC(=O)O; NMeL = CN[C@@H](CC(C)C)C(=O)O; Agp = N=C(N)NC[C@H](N)C(=O)O; X1 = CN(C)C(=NCC(=O)*)N(C)C; Orn = NCCC[C@H](N)C(=O)O; OPr = CCCO*

Key:
[1] = tested on: M. luteus ATCC 10240; format: cell-based, Micrococcus luteus
Method in brief: (§1)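 Bacteria grown overnight in NB at 37° C. were adjusted to 5×10^6 CFU/mL in 1% TSB and mixed 1:1 with a two-fold peptide series (final 125 μg/mL–60 ng/mL). After 20 hrs at 37° C., A595 was read; triplicates.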

[2] = tested on: B. subtilis 347; format: cell-based, Bactillus subtillis
Protocol: (§2) The minimal inhibition concentrations (MIC) of the apidaecin-derived peptides and peptide-derivatives were determined by a growth inhibition assay using a serial peptide dilution in sterilized round-bottom 96-well plates (polystyrene, U-bottom, Greiner Bio-One GmbH) with a final volume of 100 μL per well. The bacteria, e.g., E. coli BL21 A1, were grown in nutrient broth (NB, Carl Roth GmbH+Co. KG, Karlsruhe, Germany) at 37° C. over night. To each well of the 96-well plate, 50 μL of the overnight culture adjusted to 5×10^6 CFU/mL in 1% TSB were added. Lyophilized peptides and peptidomimetics were dissolved in 1% TSB (tryptic soy broth) or water to give a final concentration of 250 μg/mL. Fifty μL of the peptide or peptidomimetics solution were added to the first well of a row on the plate and mixed. Fifty μL of the first well containing the peptide solution were transferred to the second well, mixed and again 50 μL transferred to the next well and so on. Thereby, a two-fold dilution series was obtained starting at 250 μg/mL in the first well down to 120 ng/mL in the 12th well of a row giving a final peptide or peptidomimetics concentration from 125 μg/mL (well 1) to 60 ng/mL (well 12). Plates were incubated at 37° C. for 20 hrs. The absorbance was measured at 595 nm using a TECAN micro plate spectrophotometer (Tecan, Germany). All peptides and peptidomimetics were measured in triplicates. Sterilized water was used as a negative control.
(§3) The bacteria strains were tested: • Eschericha coli 1103, 10233, BL 21 AI, DC 2, • Klebsiella pneumoniae 681, • Micrococcus luteus ATCC 10240, • Mycobacterium vaccae • Bactillus subtillis 347.

[3] = tested on: E. coli BL 21 AI; assay: Growth inhibition assay (MIC); format: cell-based, Escherichia coli; conditions: 1% TSB, 37° C., 20 hrs
Method in brief: as §1

[4] = tested on: K. pneumonia 681; format: cell-based, Klebsiella pneumoniae
Protocol: as §2, §3

[5] = tested on: E. coli 1103; format: cell-based, Escherichia coli
Protocol: as §2, §3

[6] = tested on: E. coli D31; format: cell-based, Escherichia coli
Protocol: as §2
(§4) The following multidrug resistant bacteria strains were tested: • Eschericha coli 45849 and D31, • Klebsiella pneumoniae 123132 and K6, • Salmonella typhi S5 and Salmonella enterica subsp. enterica serovar Typhimurium (ATCC 700408), • Rhizobium radiobacter (ATCC 15955 deposited as Agrobacterium tumefaciens).

[7] = tested on: E. coli 45849; assay: Growth inhibition assay (MIC); format: cell-based, Escherichia coli; conditions: multidrug resistant strain; 1% TSB, 37° C., 20 hrs
Protocol: as §2, §4

[8] = tested on: S. enterica subsp. Enterica serovar. typhi G10215 ATCC 700408; format: cell-based, Salmonella enterica
Protocol: as §2, §4

[9] = tested on: K. Pneumonia 123132; assay: Growth inhibition assay (MIC); format: cell-based, Klebsiella pneumoniae; conditions: multidrug resistant strain; 1% TSB, 37° C., 20 hrs
Protocol: as §2, §4

[10] = tested on: K. Pneumonia K6, ATCC 700603; assay: Growth inhibition assay (MIC); format: cell-based, Klebsiella pneumoniae; conditions: multidrug resistant strain; 1% TSB, 37° C., 20 hrs
Protocol: as §2, §4

[11] = tested on: S. typhi S5; format: cell-based, Salmonella typhi
Protocol: as §2, §4

[12] = tested on: R. radiobatter ATCC 15955; assay: Growth inhibition assay (MIC); format: cell-based, Rhizobium radiobacter; conditions: multidrug resistant strain; 1% TSB, 37° C., 20 hrs
Protocol: as §2, §4

[13] = multidrug resistant strain, 1% TSB, 37° C., 20 hrs

Compound | MIC M. luteus ATCC 10240 ([1]; 1% TSB, 37° C., 20 hrs) | MIC B. subtilis 347 ([2]; 1% TSB, 37° C., 20 hrs) | MIC E. coli BL 21 AI [3] | MIC E. coli 45849 [7] | MIC K. Pneumonia 123132 [9] | MIC K. Pneumonia K6, ATCC 700603 [10] | MIC E. coli D31 ([6]; D31, 20 h) | MIC M. luteus ATCC 10240 ([1]; ATCC 10240, 20 h) | MIC S. enterica subsp. Enterica serovar. typhi G10215 ATCC 700408 ([8]; ATCC 700408, 20 h) | MIC S. typhi S5 ([11]; S5, 20 h) | also measured
86 ([Orn]NNRPVYIPRPRPPHPRPIRV-NH2) [compound 86] | 0.98 mg/L | 62.5 mg/L | 3.91 mg/L | – | – | – | – | – | – | – | –
146 (Guan-[Orn]NNRPVYIPRPRPPHP[Agp]L-NH2) [compound 146] | 4 mg/L | 125 mg/L | 32 mg/L | – | – | – | – | – | – | – | MIC K. pneumonia 681 ([4]; 1% TSB, 37° C., 20 hrs): 32 mg/L; MIC E. coli 1103 ([5]; 1% TSB, 37° C., 20 hrs): 64 mg/L
147 (Guan-[Orn]NNRPVYIPRPRPPHPRL-OPr) [compound 147] | 16 mg/L | 64 mg/L | 4 mg/L | – | – | – | – | – | – | – | MIC K. pneumonia 681 ([4]; 1% TSB, 37° C., 20 hrs): 8 mg/L; MIC E. coli 1103 ([5]; 1% TSB, 37° C., 20 hrs): 16 mg/L
159 (GNNRPVYIPRPRPPHPRL) [compound 159] | – | – | – | 1 mg/L | 4 mg/L | 4 mg/L | – | – | – | – | MIC E. coli D31 [6, 13]: 1 mg/L; MIC S. enterica subsp. Enterica serovar. typhi G10215 ATCC 700408 [8, 13]: 0.25 mg/L; MIC S. typhi S5 [11, 13]: 0.25 mg/L
CC[C@H](C)[C@H](NC(=O)[C@H](CCCNC(=N)N)NC(=O)[C@@H]1CCCN1C(=O)[C@H](Cc1c[nH]cn1)NC(=O)[C@@H]1CCCN1C(=O)[C@@H]1CCCN1C(=O)[C@H](CCCNC(=N)N)NC(=O)[C@@H]1CCCN1C(=O)[C@H](CCCNC(=N)N)NC(=O)[C@@H]1CCCN1C(=O)[C@@H](NC(=O)[C@H](Cc1ccc(O)cc1)NC(=O)[C@@H](NC(=O)[C@@H]1CCCN1C(=O)[C@H](CCCNC(=N)N)NC(=O)[C@H](CC(N)=O)NC(=O)[C@H](CC(N)=O)NC(=O)[C@@H](N)CCCN)C(C)C)[C@@H](C)CC)C(N)=O [compound 16] (H-[Orn]NNRPVYIPRPRPPHPRI-NH2) | – | – | 0.98 mg/L (≈ 0.447 µM) | – | – | 32 mg/L (≈ 14.6 µM) | 128 mg/L (≈ 58.4 µM) | 3.91 mg/L (≈ 1.78 µM) | 2 mg/L (≈ 0.912 µM) | – | –
CC[C@H](C)[C@H](NC(=O)[C@H](Cc1ccc(O)cc1)NC(=O)[C@@H](NC(=O)[C@@H]1CCCN1C(=O)[C@H](CCCNC(=N)N)NC(=O)[C@H](CC(N)=O)NC(=O)[C@H](CC(N)=O)NC(=O)CN)C(C)C)C(=O)N1CCC[C@H]1C(=O)N[C@@H](CCCNC(=N)N)C(=O)N1CCC[C@H]1C(=O)N[C@@H](CCCNC(=N)N)C(=O)N1CCC[C@H]1C(=O)N1CCC[C@H]1C(=O)N[C@@H](Cc1c[nH]cn1)C(=O)N1CCC[C@H]1C(=O)N[C@@H](CCCNC(=N)N)C(=O)N(C)[C@@H](CC(C)C)C(N)=O [compound 34] (H-GNNRPVYIPRPRPPHPR[NMeL]-NH2) | – | – | – | 4 mg/L (≈ 1.86 µM) | 32 mg/L (≈ 14.9 µM) | 32 mg/L (≈ 14.9 µM) | 8 mg/L (≈ 3.72 µM) | – | 4 to 8 mg/L | 8 mg/L (≈ 3.72 µM) | MIC R. radiobatter ATCC 15955 [12]: 1.3 mg/L (≈ 0.605 µM)
CC[C@H](C)[C@H](NC(=O)[C@H](Cc1ccc(O)cc1)NC(=O)[C@@H](NC(=O)[C@@H]1CCCN1C(=O)[C@H](CCCNC(=N)N)NC(=O)[C@H](CC(N)=O)NC(=O)[C@H](CC(N)=O)NC(=O)[C@H](CCCN)N=C(N(C)C)N(C)C)C(C)C)C(=O)N1CCC[C@H]1C(=O)N[C@@H](CCC(N)=O)C(=O)N1CCC[C@H]1C(=O)N[C@@H](CCCNC(=N)N)C(=O)N1CCC[C@H]1C(=O)N1CCC[C@H]1C(=O)N[C@@H](Cc1c[nH]cn1)C(=O)N1CCC[C@H]1C(=O)N[C@@H](CCCNC(=N)N)C(=O)N[C@@H](CC(C)C)C(N)=O [compound 120] ({Orn(α-tetramethylguanidino)}-NNRPVYIPQPRPPHPRL-NH2; N-terminus and C-terminus assumed) | – | – | – | – | – | – | 0.5 mg/L (≈ 0.221 µM) | – | 0.125 mg/L (≈ 0.0552 µM) | 0.125 mg/L (≈ 0.0552 µM) | –
CC[C@H](C)[C@H](NC(=O)[C@H](Cc1ccc(O)cc1)NC(=O)[C@@H](NC(=O)[C@@H]1CCCN1C(=O)[C@H](CCCNC(=N)N)NC(=O)[C@H](CC(N)=O)NC(=O)[C@H](CC(N)=O)NC(=O)[C@@H](N)CCCN)C(C)C)C(=O)N1CCC[C@H]1C(=O)N[C@@H](CCC(N)=O)C(=O)N1CCC[C@H]1C(=O)N[C@@H](CCCNC(=N)N)C(=O)N1CCC[C@H]1C(=O)N1CCC[C@H]1C(=O)N[C@@H](Cc1c[nH]cn1)C(=O)N1CCC[C@H]1C(=O)N[C@@H](CCCNC(=N)N)CC(=O)N[C@@H](CC(C)C)C(N)=O [compound 121] (H-[Orn]NNRPVYIPQPRPPHP[β3hR]L-NH2) | – | – | – | 128 mg/L (≈ 58.8 µM) | 128 mg/L (≈ 58.8 µM) | >128 mg/L | 16 mg/L (≈ 7.34 µM) | – | – | – | –
CC[C@H](C)[C@H](NC(=O)[C@H](Cc1ccc(O)cc1)NC(=O)[C@@H](NC(=O)[C@@H]1CCCN1C(=O)[C@H](CCCNC(=N)N)NC(=O)[C@H](CC(N)=O)NC(=O)[C@H](CC(N)=O)NC(=O)CNC(C)=O)C(C)C)C(=O)N1CCC[C@H]1C(=O)N[C@@H](CCC(N)=O)C(=O)N1CCC[C@H]1C(=O)N[C@@H](CCCNC(=N)N)C(=O)N1CCC[C@H]1C(=O)N1CCC[C@H]1C(=O)N[C@@H](Cc1c[nH]cn1)C(=O)N1CCC[C@H]1C(=O)N[C@@H](CCCCNC(=N)N)C(=O)N[C@@H](CC(C)C)C(N)=O [compound 132] (Ac-GNNRPVYIPQPRPPHP[hArg]L-NH2) | – | – | 32 mg/L (≈ 14.8 µM) | – | – | – | – | 32 mg/L (≈ 14.8 µM) | – | – | MIC B. subtilis 347 ([2]; 347, 20 h): 128 mg/L (≈ 59.2 µM); MIC K. pneumonia 681 ([4]; 20 h): 32 mg/L (≈ 14.8 µM); MIC E. coli 1103 ([5]; 1103, 20 h): 64 mg/L (≈ 29.6 µM)
CC[C@H](C)[C@H](NC(=O)[C@H](Cc1ccc(O)cc1)NC(=O)[C@@H](NC(=O)[C@@H]1CCCN1C(=O)[C@H](CCCNC(=N)N)NC(=O)[C@H](CC(N)=O)NC(=O)[C@H](CC(N)=O)NC(=O)CN=C(N(C)C)N(C)C)C(C)C)C(=O)N1CCC[C@H]1C(=O)N[C@@H](CCC(N)=O)C(=O)N1CCC[C@H]1C(=O)N[C@@H](CCCNC(=N)N)C(=O)N1CCC[C@H]1C(=O)N1CCC[C@H]1C(=O)N[C@@H](Cc1c[nH]cn1)C(=O)N1CCC[C@H]1C(=O)N[C@@H](CCCCNC(=N)N)C(=O)N[C@@H](CC(C)C)C(N)=O [compound 133] (X1-NNRPVYIPQPRPPHP[hArg]L-NH2; N-terminus and C-terminus assumed) | – | – | – | – | – | – | 16 mg/L (≈ 7.21 µM) | 32 mg/L (≈ 14.4 µM) | 2 mg/L (≈ 0.901 µM) | 16 mg/L (≈ 7.21 µM) | MIC K. pneumonia 681 ([4]; 20 h): 8 mg/L (≈ 3.6 µM); MIC E. coli 1103 ([5]; 1103, 20 h): 16 mg/L (≈ 7.21 µM)
